This note sets out measurements from PubChem BioAssay AID2305 (GlaxoSmithKline (GSK), 2010).

This test relates to P. falciparum 3D7 growth, pLDH absorbance. As to the kind of experiment: P. falciparum 3D7 growth inhibition, dose response, strain 3D7 (AID 2305).

A word on the IC50: it is the concentration that inhibits the measured activity by half.

Where “and” joins values, the source holds several entries; their conditions need not be identical. Equal values may be shown once.

In turn, `CCCCNC(c1ccc(Cl)cc1)C(O)c1ccc(Cl)cc1` (centres undefined) came in with an IC50 of 620 nM. As to `O=C(/C=C/c1cccc(Cl)c1)NC1CCC(CN2CCC(c3c[nH]c4ccccc34)CC2)CC1` (centres undefined), the IC50 was 750 nM and 720 nM. `COc1cc(NC(=O)c2sc(-c3ccc(Cl)cc3)cc2Cl)ccc1OCCN1CCCC1` had an IC50 of 980 nM. Under `CC(=O)N(C)c1cccc(C(=O)Nc2ccc(-c3cccc(-c4nc5c(C)cccc5[nH]4)c3)cc2)c1` stands 650 nM; under `CCCCCCCc1ccc(-c2c(C)[nH]c(C)c(Cl)c2=O)cn1`, 360 nM; under `COc1ccccc1N1CCN(Cc2cc(C(C)C)c(C)cc2O)CC1`, 570 nM.

`NCCCNc1nc(Nc2cccc(C(N)=O)c2)c2c(=O)[nH]ccc2n1` gave an IC50 of 590 nM. The IC50 values of the last two compounds are within 1.5-fold of each other. In the case of `COc1ccc2c(-c3ccccc3)noc2c1`, the IC50 came out at 240 nM. With `Cc1nc2ccc3ccc(CN(C)c4ccc(C(=O)N[C@@H](CCC(=O)O)C(=O)O)cc4)cc3c2c(=O)[nH]1` the figure was 880 nM; with `O=C(Cn1cc(C=C2SC(=NC3CCCC3)N(C3CCCC3)C2=O)c2ccccc21)N1CCCC1`, 300 nM; with `S=C(NCC1CCCCC1)NC1CCC(CN2CCC(c3c[nH]c4ccccc34)CC2)CC1` (centres undefined), 1110 nM. The compound `COc1ccc(NC(=O)[C@H](CC(C)C)Nc2cc(C)nc(NCC3CCCCC3)n2)cc1` showed an IC50 of 1100 nM. The compound `Cc1cccc(CN2CCCN(Cc3cccc(C(=O)Nc4ccc(C(C)(C)C)cc4)c3)CC2)c1` gave an IC50 of 930 nM. This IC50 and that of the compound before are within 1.5-fold of each other. With `CCc1ccc(S(=O)(=O)Nc2cccc(CCN3CCC(N4CCCCC4)CC3)c2)cc1` the figure was 900 nM. With `CC1CCCC(NC(=O)CCOc2ccccc2)C1` (centres undefined), the IC50 was 880 nM. The IC50 values of the last two compounds are within 1.5-fold of each other. Under `CN(C)Cc1cccc(CNC(=O)c2sccc2OCc2ccc(Cl)cc2)c1` stands 830 nM. For the compound `O=C(Nc1ccc(Cn2ncc(N3CCCNCC3)c(Cl)c2=O)cc1)Nc1cc(C(F)(F)F)cc(C(F)(F)F)c1`, the IC50 came out at 590 nM. Turning to `COc1cc(F)c2ncc(Cl)c(C(O)CN3CCC(NC(=O)c4ccc5c(c4)NC(=O)CS5)CC3)c2c1` (centres undefined), the half-maximal inhibitory concentration (IC50) is 680 nM. For the compound `O=C(Nc1ccc(S(=O)(=O)N2CCCCC2)cc1)c1cc(-c2cc(Cl)ccc2O)n[nH]1`, the IC50 stood at 810 nM. `Cc1cccc(NC(=S)NC2CCN(CCCCCNC(=O)/C=C/c3ccc(Cl)c(Cl)c3)CC2)c1` had an IC50 of 950 nM. `COCCNCc1ccc(-c2ccc3c(Nc4ccc(Cl)cc4F)ccnc3c2)o1`: the IC50 is 210 nM. Under `CC(C)c1sc(N2CCN(C)CC2)nc1C(=O)NCCc1ccc(Cl)c(Cl)c1` stands 1050 nM. Take `C=CCOC(=O)N1CCC(CNCc2cccc(-c3cccc(-c4nc5ccccc5[nH]4)c3)c2)C1` (centres undefined): the IC50 was 340 nM. Under `CC1CCN(CC[C@H]2CCCN2S(=O)(=O)c2cccc(NC(=O)c3cc4ccccc4s3)c2)CC1` stands 830 nM. Under `CNCCNCc1cccc(-c2ccc(-c3nc4ccccc4[nH]3)s2)c1` stands 830 nM; under `N=C(N)c1cccc(-c2cc(-c3cccc(C(=N)N)c3)on2)c1`, 90 nM. Under `CC(Cc1ccc(NC(=O)c2ccc(CC(C)NCc3ccc(Cl)cc3)cc2)cc1)NCCc1cccc(Cl)c1` (centres undefined) stands 450 nM. `CN1CCC(N2CCN(Cc3ccc(-c4ccc(-c5nc6ccc(F)cc6[nH]5)s4)cc3)CC2)CC1` came in with an IC50 of 150 nM. With `O=S(=O)(c1c(Cl)cc(Cl)cc1Cl)N1CCCCC(c2ccc(C(F)(F)F)cc2)=N1` the figure was 100 nM; with `CN1CCN(CCCN(Cc2cccc(-c3ccc(CNC4CCCC4)cc3)c2)C(=O)CCC2CCCC2)CC1`, 760 nM; with `Cc1cc(N2CCCC2)nc(Nc2ccc(NC(=O)c3ccc4c(c3)OCO4)cc2)n1`, 810 nM. Take `NC(=O)c1c(Cl)nc2ccccc2c1Cl`: the IC50 stood at 960 nM.

In turn, `O=C(Nc1ccc(Cn2ncc(N3CCCNCC3)c(Cl)c2=O)cc1)Nc1ccc(OCc2ccccc2)cc1` yielded an IC50 of 820 nM.

`Cc1[nH]nc2cc(Nc3nccc(Nc4ccc(Oc5ccccc5)cc4)n3)ccc12`: the IC50 amounted to 600 nM.

In turn, `O=C(NCc1ccc(Cl)c(Cl)c1)c1ccc(C2CCN(Cc3ccc4nc[nH]c4c3)CC2)cc1` registered an IC50 of 960 nM. Compound `O=C(OCC1CCN(Cc2ccccc2)C1)c1ccc(Cl)cc1` (centres undefined) came in with an IC50 of 680 nM. The IC50 values of the last two compounds are within 1.5-fold of each other. Under `Cn1cncc1C(=O)Nc1cccc(-c2ccc(-c3nc4ccccc4[nH]3)cc2)c1` stands 850 nM.

For the compound `CC(C)c1cc(Oc2c(I)cc(CCCc3ncc[nH]3)cc2I)ccc1O`, the IC50 was 1120 nM. This IC50 and that of the compound before are within 1.5-fold of each other. Under `CCN(CC)CC(O)c1cc(-c2ccc(OC)cc2)nc2cc(Cl)ccc12` (centres undefined) stands 70 nM; under `COc1cc(C2Nc3ccc4ccccc4c3C3=C2C(=O)CC(C)(C)C3)ccc1Oc1ccc([N+](=O)[O-])cc1C#N` (centres undefined), 660 nM. Under `O=C(NCCCN1CCC(NC(=O)c2ccc(-c3cccnc3)cc2)CC1)c1ccc(Cl)c(Cl)c1` stands 850 nM; under `Cc1nc2ccc3ccc(CNc4ccc(C(=O)N[C@@H](CCC(=O)O)C(=O)O)cc4)cc3c2c(=O)[nH]1`, 180 nM. As to `COc1ccc2nccc([C@@H](O)CN3CCC(CO)(NCc4cc5ccccc5o4)CC3)c2c1`, the IC50 turned out to be 1370 nM.

`O=C(Nc1ccc([N+](=O)[O-])cc1Br)c1cc2ccccc2nc1Cl` gave an IC50 of 190 nM. Compared with the last compound, the IC50 is about 7.2-fold lower. In turn, `CC(=O)Nc1nc(C(=O)Nc2ccc(-c3ccc(-c4nc5ccc(F)cc5[nH]4)cc3)cc2)cs1` showed an IC50 of 460 nM. `CC(Nc1cc(-c2ccccn2)nc(-c2ccccn2)n1)c1ccccc1` (centres undefined): the IC50 worked out at 450 nM. Consider `CCc1ccccc1-c1csc(C(=O)NCC2CCN(Cc3ccc(C(C)(C)C)cc3)C2)c1` (centres undefined), for which the IC50 amounted to 1150 nM. `COC(=O)c1ccc(OCC(O)CO)cc1O` (centres undefined) had an IC50 of 740 nM.

Regarding `O=C(Nc1cccc(CN2CCCN(Cc3ccc(O)cc3)CC2)c1)c1ccc2ccccc2n1`, the IC50 amounted to 940 nM. In turn, `CC(C)OC(=O)c1cccnc1SCC(=O)Nc1ccc(C(F)(F)F)cc1Cl` showed an IC50 of 400 nM. In turn, `COc1cc2ncnc(Nc3ccc(OCc4ccccc4)c(I)c3)c2cc1OC` registered an IC50 of 710 nM. For `Cc1c(Cn2nc(Cl)c(N3CCNCC3)cc2=O)cccc1NC(=O)Nc1ccc(-c2ccccc2)cc1`, the IC50 was 1380 nM.

The compound `CC(=O)N(Cc1cccc(-c2cccc(CNCCc3ccccc3)c2)c1)C1CCN(Cc2ccccc2)CC1` came in with an IC50 of 670 nM. `COc1cc(C(=O)Nc2nc3ccccc3[nH]2)ccc1OCC(=O)Nc1cccc(C(F)(F)F)c1` registered an IC50 of 740 nM. On to `Nc1nc(Nc2cccc(O)c2)nc2ccccc12`, for which the IC50 came to 790 nM. `CC(=O)Nc1sc(C)c(C)c1CN1CCc2ccccc2C1` came in with an IC50 of 620 nM.

In turn, `Cc1cccc2[nH]c(-c3cccc(-c4ccc(NC(=O)C(C)CN5CCN(C)CC5)cc4)c3)nc12` (centres undefined) returned an IC50 of 180 nM. Compared with the last compound, the IC50 is about 3.4-fold lower.

In the case of `O=C(Nc1ccc(-c2nc3ccccc3[nH]2)cc1)c1cccc(S(=O)(=O)N2CCOCC2)c1`, the IC50 is 900 nM. As to `CCCCCc1cc(OC(=O)CCCN(CC)CC)c2c(c1)OC(C)(C)C=C2C1=CCN(Cc2ccc3ccccc3c2)CC1`, the IC50 was determined as 160 nM. This IC50 lies about 5.6-fold lower than the previous one. Take `FC(F)(F)c1ccc(CSc2ccc3nnc(-c4ccccn4)n3n2)cc1`: the IC50 worked out at 820 nM. As to `CN(C)CCCNC(=O)c1ccccc1Sc1ccccc1C#N`, the IC50 worked out at 1140 nM. This IC50 and that of the compound before are within 1.5-fold of each other. The compound `CN(C)CCNC(=O)NC1CN(c2ncnc3cc(-c4ccccc4)sc23)C1` displayed an IC50 of 580 nM.

For the compound `O=C(Nc1ccccc1F)NC1CCN(c2ccnc(Nc3ccc(F)cc3)n2)CC1`, the IC50 was found to be 750 nM. With `COc1ccc(N2CCN(c3nc(Nc4ccc(NC(C)=O)cc4)nc(N4CCCC4)n3)CC2)cc1`, the IC50 worked out at 980 nM. Under `Fc1ccc2nccc(NN=Cc3ccccc3Cl)c2c1` stands 920 nM.

Take `O=C(NCc1cccc(C(F)(F)F)c1)c1ccc(-c2nc3cc(F)c(F)cc3[nH]2)cc1`: the IC50 was determined as 780 nM. The IC50 values of the last two compounds are within 1.5-fold of each other.

For the compound `CC(C)n1cc(CN2CCCC(C(=O)Nc3cccc(-c4cc5ccccc5[nH]4)c3)C2)cn1` (centres undefined), the IC50 is 1000 nM. For the compound `COc1cc(NC(=O)Nc2cccc3ccccc23)c(OC)cc1Cl`, the IC50 came to 480 nM. The compound `Oc1cccc2c1CC(NCc1ccccc1)CC2` (centres undefined) registered an IC50 of 890 nM. This IC50 is about 1.9-fold higher than that of the compound before.

The compound `CC(C)(C)c1nn(-c2ccccc2)c2[nH]c(=O)c(CNCc3ccccc3)cc12` yielded an IC50 of 1050 nM. The IC50 values of the last two compounds are within 1.5-fold of each other.

For `O=C(Nc1cccc(-c2cccc(CN3CCCC3)c2)c1)c1cccc(Cl)c1`, the IC50 came out at 1180 nM.

Take `COc1ccc(CNC2Cc3ccccc3C2)cc1-c1ccc(S(=O)(=O)NCCN2CCCC2)c(F)c1`: the IC50 stood at 720 nM. As to `Cc1cccc2[nH]c(-c3cccc(-c4cccc(NC(=O)Nc5ccsc5)c4)c3)nc12`, the IC50 is 170 nM.

On to `Clc1ccc2c(NCCCCCCCCNc3ccnc4cc(Cl)ccc34)ccnc2c1`, for which the IC50 worked out at 480 nM. The compound `CNCCNCc1ccc(-c2ccc(-c3nc4ccc(C(F)(F)F)cc4[nH]3)cc2)cc1` displayed a half-inhibitory concentration (IC50) of 310 nM. This IC50 is about 1.5-fold lower than that of the compound before.

Consider `O=C(Nc1ccc2c(c1)CCC2)c1cnc(N2CCN(c3ccncc3)CC2)c(Cl)c1`, for which the 50% inhibitory concentration (IC50) was determined as 1110 nM.

For `COc1cc(NC(=O)CCCCCCCCN2CCN(C)CC2)c2ncccc2c1`, the IC50 is 890 nM. Under `Cc1[nH]c(C)c(-c2ccc(OCc3ccc(OC(F)(F)F)cc3)nc2)c(=O)c1Cl` stands 70 nM; under `CCN(CCCN1CCCCC1)c1cc(C)nc(Nc2ccc(Cl)cc2)n1`, 380 nM. `CC1CCCCN1CCCNC(=O)c1cccc(-c2cc3cc(Cl)c(Cl)cc3[nH]2)c1` (centres undefined) had an IC50 of 880 nM.

In turn, `CCNCc1ccc(-c2cc3ncnc(Nc4ccc(OCc5cccc(F)c5)c(Cl)c4)c3s2)[nH]1` had an IC50 of 110 nM. With `COc1ccc(C(C(=O)NC2CCN(C[C@H](O)c3ccnc4ccc(OC)cc34)CC2)N2CCN(c3ccc([N+](=O)[O-])cc3)CC2)cc1` (some centres undefined) the figure was 230 nM; with `O=C(Nc1cccc(-c2nn3ncccc3c2-c2ccnc(Nc3cccc(-c4cnco4)c3)n2)c1)c1c(F)cccc1F`, 170 nM. Take `CCOc1cc(C(=O)N[C@@H](Cc2ccccc2)[C@H](O)CNCc2cccc(OC)c2)cc(N2CCCCS2(=O)=O)c1`: the IC50 worked out at 720 nM. `CCCC1(NC[C@@H](O)[C@H](Cc2ccccc2)NC(=O)c2cc(NCC)cc(N3CCCCS3(=O)=O)c2)CC1` displayed an IC50 of 1080 nM. Compared with the last compound, the IC50 is about 1.5-fold higher. Under `CCN(CC)CCCC(C)Nc1ccnc2ccc(OC)cc12` (centres undefined) stands 820 nM; under `Cc1nc2nc(N)nc(N)c2c(C)c1Cc1ccccc1I`, 350 nM. For `COCCNCc1cccc(-c2ccc3c(Nc4ccc(Oc5ccccc5)cc4)ccnc3c2)c1`, the IC50 was 520 nM. This IC50 and that of the compound before are within 1.5-fold of each other.

In turn, `Cc1nc(-c2nc(N3CCC(O)CC3)ncc2-c2ccsc2)sc1C` displayed an IC50 of 940 nM. This IC50 lies about 1.8-fold higher than the previous one.
